Consider 3 compounds from US20110046106A1, “ARYL SULFONAMIDES AS EFFECTIVE ANALGESICS” (BOEHRINGER INGELHEIM INTERNATIONAL GMBH, priority 2008, published 2011).

This experiment deals with T1, rat BK1 receptor (Rattus norvegicus, UniProt P97583).
T1 construct: expressed in transfected cells
T1 sequence (P97583 1-337): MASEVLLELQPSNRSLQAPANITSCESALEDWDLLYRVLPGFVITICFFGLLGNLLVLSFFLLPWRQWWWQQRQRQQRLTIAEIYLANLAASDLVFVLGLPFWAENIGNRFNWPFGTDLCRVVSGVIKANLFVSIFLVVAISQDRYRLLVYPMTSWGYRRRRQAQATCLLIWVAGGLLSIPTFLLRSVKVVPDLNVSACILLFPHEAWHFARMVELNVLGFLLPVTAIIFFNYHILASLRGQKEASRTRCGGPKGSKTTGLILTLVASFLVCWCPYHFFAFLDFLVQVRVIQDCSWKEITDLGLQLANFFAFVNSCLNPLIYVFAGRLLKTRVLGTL
The experiment in a line: Bradykinin BK1-receptor binding (radioligand displacement, membranes of CHO cells). Particulars: membranes of CHO cells stably expressing the rat BK1 receptor; 1 to 5 nM [3H]-kallidin (DesArg10, Leu9); 120 minutes at room temperature. The protocol:
Description of the Method of Bradykinin BK1-Receptor Binding
CHO cells stably expressing the rat BK1 receptor are cultivated in Dulbecco's modified medium. The medium from confluent cultures is removed and the cells are washed with PBS buffer, scraped off and isolated by centrifugation. The cells are then homogenized in suspension and the homogenate is centrifuged and resuspended. The protein content is determined and the membrane preparation obtained in this manner is then frozen at −80° C.
After thawing, 200 μl of the homogenate (50 to 100 μg of proteins/assay) are incubated at room temperature with 1 to 5 nM of kallidin (DesArg10, Leu9), [3,4-prolyl-3,43H(N)] and increasing concentrations of the test substance in a total volume of 250 μl for 120 minutes. The incubation is terminated by rapid filtration through GF/B glass fibre filters which had been pretreated with polyethyleneimine (0.3%). The protein-bound radio-activity is measured in a TopCount NXT (Perkin Elmer/Packard). Non-specific binding is defined as radioactivity bound in the presence of 1.0 μM Lys-Des-Arg9-bradykinin. The concentration/binding curve is analysed using a computer-assisted nonlinear curve fitting. The Ki which corresponds to the test substance is determined using the data obtained in this manner.
It is pointed out that the compounds were selected for their different structural elements and not in order to emphasise specific compounds: […]
Compound `COc1cc(C)c(S(=O)(=O)N(C)CCOCC(=O)N(C)[C@@H]2CCN(C3CCN(C4CC4)CC3)C2)c(C)c1` [Example 8] had an inhibition constant (Ki) of 23.5 nM.
The figure for `COc1cc(C)c(S(=O)(=O)N(C)CCOCC(=O)N(C)C[C@@H]2CCN(C(=O)CCN3CCCC3)C2)c(C)c1` [Example 6] is 181 nM.
The value for `COc1cc(C)c(S(=O)(=O)N(C)CCOCC(=O)N(C)[C@@H]2CCN(C3CCN(C4CCOCC4)CC3)C2)c(C)c1` [Example 3] was 24.7 nM.
